Measurements taken from patent publication US20160251402A1, “MICROPEPTIDES AND USE OF SAME FOR MODULATING GENE EXPRESSION” (UNIVERSITE PAUL SABATIER TOULOUSE III, priority 2013, published 2016).
Entries after “also recorded” stand apart in the source; their conditions may differ.

Assays:
[1] = system: AtmiR319a; test: Accumulation of AtmiR319a in the model plant of tobacco; type: in vivo, Nicotiana benthamiana; details: tobacco expressing AtmiR319a, overexpression of AtmiORF319a
Procedure: (§1) At present, AtmiPEP165a and AtmiPEP319a2, identified in Arabidopsis thaliana, have already been characterized.
(§2) The total RNA was extracted from roots of M. truncatula or from tobacco leaves using the extraction kit RNeasy Plant Mini Kit (Qiagen). The reverse transcription was performed using the reverse transcriptase SuperScript II (Invitrogen) starting from 500 ng of total RNA. Three repetitions (n=3) were carried out, each with two technical repetitions. Each experiment was repeated from two to three times. The amplifications by qPCR were carried out using a LightCycler 480 System thermocycler (Roche Diagnostics) by the method described in Lauressergues et al. (Plant J., 72(3): 512-22, 2012).
(§3) For the miPEPs 165a and 319a, the corresponding miORFs were cloned into pBIN19 by the method described in Combier et al. (Genes & Dev, 22: 1549-1559, 2008).
(§4) The composite plants having roots transformed with Agrobacterium rhizogenes were obtained by the method described in Boisson-Dernier et al. (Mol Plant-Microbe Interact, 18: 1269-1276, 2005). The transformed roots were verified and selected by observations of DsRED with a binocular fluorescence magnifier. The control roots correspond to roots transformed with A. rhizogenes not containing the pPEX-DsRED vector. Transformation of the tobacco leaves was carried out by the method described in Combier et al. (Genes & Dev, 22: 1549-1559, 2008).

[2] = system: AtmiR160b; test: Relative expression of AtmiR160b in A. thaliana; type: in vivo, Arabidopsis thaliana; details: plant in which AtmiPEP160b1 is overexpressed vs control plant
[3] = system: MtmiR171e; test: Relative expression of MtmiR171e in M. truncatula; type: in vivo, Medicago truncatula; details: plant in which MtmiPEP171e is overexpressed vs control plant
Procedure: as §2, §4

[4] = system: Arabidopsis thaliana; test: Plant growth of Arabidopsis thaliana after 3 weeks of watering; type: in vivo; details: watered with 0.1 μM of synthetic peptide, 3 weeks of growth, vs water
[5] = system: AtmiR319a; test: Relative expression of AtmiR319a in A. thaliana (qRT-PCR); type: in vivo, Arabidopsis thaliana; details: plant in which AtmiPEP319a1 is overexpressed vs control plant
[6] = system: AtmiR164a; test: Northern blot of AtmiR164a in A. thaliana roots; type: in vivo, Arabidopsis thaliana; details: 0.1 μM synthetic peptide dissolved in water vs water; U6 loading control
Procedure: Northern blot analysis was carried out according to the protocol described in Lauressergues et al. Plant J., 72(3): 512-22, 2012.
The biological samples were homogenized in a buffer containing 0.1 M of NaCl, 2% of SDS, 50 mM of Tris-HCl (pH 9), 10 mM of EDTA (pH 8) and 20 mM of mercaptoethanol, and the RNA was extracted twice with a phenol/chloroform mixture and was precipitated with ethanol.
The RNA was loaded on PAGE 15% gel and transferred to a nylon membrane (HybondNX, Amersham). RNA was hybridized with a radioactive oligonucleotide probe labelled at its end, in order to detect the RNA U6 or for miR164a.
The hybridizations were carried out at 55° C. The hybridization signals were quantified using a phosphorimager (Fuji) and normalized with the signal of the specific probe of RNA U6.

[7] = system: AtmiR164a; test: Relative expression of AtmiR164a in A. thaliana (qRT-PCR); type: in vivo, Arabidopsis thaliana; details: plant watered once a day with peptide at 0.1 μM vs control plant
[8] = system: Arabidopsis thaliana root growth; test: Root growth in Arabidopsis thaliana; type: in vivo; details: plant treated with AtmiPEP165a vs control plant of the same age
[9] = system: pri-miR165a; test: Relative expression of pri-miR165a in A. thaliana (Col-0 and nrpb2-3); type: in vivo, Arabidopsis thaliana
Source text: Moreover, to determinate the mode of action of miPEPs regarding the accumulation of their own miRs, the expression of pri-miR165a has been analysed in wildtype plants and in plants that have been transformed to overexpress miPEP165a (FIG. 35).
Moreover, the expression of pri-miR165a has been analysed in wildtype plants (Col-0 plants) and in mutated plants having a low allele of the second large subunit of RNA polymerase II (nrpb2-3 plants). […] It appears that the miPEP operates as a transcription regulator.
as §2

[10] = system: REVOLUTA: REV; test: Expression of REVOLUTA (REV) in roots of A. thaliana; type: in vivo, Arabidopsis thaliana; details: roots treated with 0.01, 0.1, 1 or 10 μM peptide vs water
[11] = system: AtmiR165a; test: Accumulation of AtmiR165a in the model plant of tobacco; type: in vivo, Nicotiana benthamiana; details: tobacco expressing AtmiR165a, overexpression of AtmiORF165a
Procedure: as §1, §2, §3, §4

[12] = system: PHABOLUSA: PHB; test: Expression of PHABOLUSA (PHB) in roots of A. thaliana; type: in vivo, Arabidopsis thaliana; details: roots treated with 0.01, 0.1, 1 or 10 μM peptide vs water
[13] = system: AtmiR165a; test: Northern blot of AtmiR165a in A. thaliana roots; type: in vivo, Arabidopsis thaliana; details: 0.1 μM synthetic peptide dissolved in water vs water; U6 loading control
[14] = system: AtmiR165a; test: Accumulation of AtmiR165a in roots of A. thaliana (relative expression); type: in vivo, Arabidopsis thaliana; details: roots treated with 0.01, 0.1, 1 or 10 μM peptide vs water
[15] = system: PHAVOLUTA: PHV; test: Expression of PHAVOLUTA (PHV) in roots of A. thaliana; type: in vivo, Arabidopsis thaliana; details: roots treated with 0.01, 0.1, 1 or 10 μM peptide vs water
[16] = system: pri-miR165a; test: RNA stability of pri-miR165a in the presence of cordycepin; type: in vivo, Arabidopsis thaliana; details: in the presence of cordycepin (inhibitor of RNA synthesis), peptide at 10 μM
Procedure: For each condition, two week old plants that have been cultivated vertically on solid MS medium have been transferred in 6-well plates containing 1 ml of liquid MS medium. […] Each indivual experiment has been made 3 times.

[17] = system: MtmiR169d; test: Relative expression of MtmiR169d in M. truncatula; type: in vivo, Medicago truncatula
Procedure: as §2

[18] = system: DmmiR8; test: Relative expression of Pre-miR8 in transfected Drosophila melanogaster cells; type: cell-based
Procedure: S2 cells are cultured in a T75 flask in 12 mL of Schneider's medium (GIBCO), containing 1% of penicillin 100 U/mL and […] (Sigma) and 10% of decomplemented foetal calf serum (30 min at 56° C.). The transient transfections are carried out using the FuGENE® HD transfection kit (Roche), according to the recommendations. Conventionally, 1.5 million S2 cells, previously seeded in 6-well plates (3 ml of medium per well), are transfected with 250 ng of total plasmid DNA. The DNA is brought into contact with the Fugene (3 μl) in 100 μl of OPTIMEM (GIBCO). After 20 minutes, the transfection reagent formed is brought into contact with the cells in the culture medium. The RNA of the cells is extracted 66 h after transfection.

MFQTLYLFIYIHTNILLLS (listed as Arabidopsis thaliana) [AtmiPEP319a2]
accumulation of AtmiR319a [1]: increase in the accumulation

MFSPQ (listed as Arabidopsis thaliana) [AtmiPEP160b1]
relative expression of AtmiR160b [2]: increase in the relative expression of AtmiR160b; also recorded: induces an accumulation of AtmiR160b

MMVFGKPKKAMLVRFNPKTDLHV (listed as Medicago truncatula) [MtmiPEP171e]
relative expression of MtmiR171e [3]: increase in the relative expression of MtmiR171e; also recorded: induces an accumulation of MtmiR171e

MNIHTYHHLLFPSLVFHQSSDVPNALSLHIHTYEYIIVVIDPFRITLAFR [AtmiPEP319a1]
plant growth [4]: increases plant growth significantly | relative expression of AtmiR319a [5]: increase in the accumulation of AtmiR319a; also recorded: increase in the relative expression of AtmiR319a; also recorded: increase in the accumulation of miR319a

MPSWHGMVLLPYVKHTHASTHTHTHNIYGCACELVFH [AtmiPEP164a1]
accumulation of AtmiR164a (Northern blot) [6]: increase in the accumulation of miR164a | plant growth [4]: increases plant growth significantly | relative expression of AtmiR164a [7]: increase in the relative expression of AtmiR164a

MRVKLFQLRGMLSGSRIL (listed as Arabidopsis thaliana) [AtmiPEP165a]
root growth phenotype [8]: greatly accelerated root growth | relative expression of pri-miR165a ([9]; nrpb2-3 mutated plants vs wildtype (Col-0), water or peptide at 10 μM): not capable of accumulating AtmiR165a in response to AtmiPEP165a | relative expression of pri-miR165a ([9]; nrpb2-3 mutated plants vs wildtype (Col-0), water or peptide at 10 μM, listed as miPEP165a): mutated plants do not show an increase in the accumulation of pri-miR165 in response to miPEP165a | expression of pri-miR165a ([9]; plants that overexpress miPEP165a vs wildtype plants): enhanced | relative expression of pri-miR165a ([9]; roots watered once a day with peptide at 10 μM vs control roots): increase in the relative expression of AtmiR165a | relative expression of REV [10]: negative regulation of its target genes | accumulation of AtmiR165a [11]: increase in the accumulation | relative expression of PHB [12]: negative regulation of its target genes | accumulation of AtmiR165a (Northern blot) [13]: increase in the accumulation of miR165a | relative expression of AtmiR165a [14]: dose-dependent effect of the accumulation of AtmiR165a | relative expression of AtmiR165a ([14]; listed as miPEP165a): dose-dependent effect on the accumulation of miR165a | relative expression of PHV [15]: negative regulation of its target genes | stability of pri-miR165a [16]: does not induce a better stability of pri-miR165a | stability of pri-miR165a ([16]; listed as miPEP165a): does not operate as a RNA stabilizer, but rather as a transcription activator of pri-miR165a

MVKESFMERLKVR (listed as Medicago truncatula) [MtmiPEP169d]
accumulation of MtmiR169d ([17]; overexpression of the miPEP in M. truncatula (as worded in Example 1B)): induces an accumulation of MtmiR169d | relative expression of MtmiR169d ([17]; plant watered once a day with peptide at 0.1 μM vs control plant): increase in the relative expression of MtmiR169d

B1: MEPGFVFVLFPTHLSTQHTQREKSILVMGLNLQSAKQSDKQNSKERKKNTQINSQRIPYRQGGQCSKVLSP (peptide)
chain: MEPGFVFVLFPTHLSTQHTQREKSILVMGLNLQSAKQSDKQNSKERKKNTQINSQRIPYRQGGQCSKVLSP
modifications: Drosophila melanogaster
relative expression of Pre-miR8 ([18]; cells overexpressing DmmiPEP8 vs miPEP8 with mutated start codons): increases the expression of DmmiR8 | relative expression of Pre-miR8 ([18]; cells overexpressing wild-type DmmiR8 vs DmmiR8 with mutated miPEP8 start codons): increases the expression of DmmiR8
